Reference: patent US20210114975A1, “THERAPEUTIC COMPOUND AND METHODS” (Regents of the University of Minnesota, priority 2019, published 2021)

How the values were obtained:
Format in all cases: cell-based
[1] = system: MCT1 expressing WiDr cell line; test: Mitochondrial stress test (Seahorse XFe96); conditions: vs DMSO control
Protocol: (§1) The metabolic profile of compound 1 was evaluated via mitochondrial stress test (MST) and glycolytic stress test (GST) on MCT4 expressing MDA-MB-231 and MCT1 expressing WiDr cell lines using Seahorse XFe96® analyzer (FIGS. 1A and 1B). 20,000 cells/well were seeded in 96-well microplates. MST was performed according to the manufacturer's protocol. The mitochondrial parameters: maximal respiration, ATP production, proton leak and spare respiratory capacity were calculated using wave software. DMSO was used as the negative control. A concentration study was performed in MDA-MB-231 cell line using compound 1 at 100, 50 and 30 μM concentrations. […] GST was also performed according to the manufacturer's protocol. The glycolytic parameters: glycolysis, glycolytic capacity, and glycolytic reserve were calculated using wave software, with DMSO as a negative control. In this case also, a concentration study was carried out at 100, 50 and 30 μM in MDA-MB-231 cell line.

[2] = system: MCT4 expressing MDA-MB-231 cell line; test: Mitochondrial stress test (Seahorse XFe96); conditions: 100, 50 and 30 μM, vs DMSO control
Protocol: as §1

[3] = system: MCT4 expressing MDA-MB-231 cell line; test: Glycolysis stress test (Seahorse XFe96); conditions: 100, 50 and 30 μM, vs DMSO control
Protocol: as §1

[4] = system: 4T1 breast cancer cell line; test: Inhibition of pyruvate-driven respiration in permeabilized cells (Seahorse XFe96); conditions: varying concentrations

Structure (SMILES)	ATP production [1]	maximal respiration [1]	spare respiratory capacity [1]	ATP production [2]	maximal respiration [2]	spare respiratory capacity [2]	glycolytic capacity [3]	glycolytic reserve [3]	oxygen consumption rate (OCR) after compound injection ([4]; intact 4T1 cells, before rPFO)	inhibition of pyruvate-driven respiration ([4]; rPFO-permeabilized 4T1 cells, FCCP-stimulated pyruvate/malate/DCA)
N#C/C(=C\c1ccc(N(c2ccc(F)cc2)c2ccc(F)cc2)cc1)C(=O)O [Compound 1, (E)-3-(4-(bis(4-fluorophenyl)amino)phenyl)-2-cyanoacrylic Acid]	significantly decreased	significantly decreased	significantly decreased	significantly decreased	significantly decreased	significantly decreased	significantly decreased	significantly decreased	–	–
COc1cc(N(c2ccc(F)cc2)c2ccc(F)cc2)ccc1/C=C(\C#N)C(=O)O [Compound 2, (E)-3-(4-(bis(4-fluorophenyl)amino)-2-methoxyphenyl)-2-cyanoacrylic Acid]	–	–	–	–	–	–	–	–	Acute decreases in OCR were observed	inhibited pyruvate-driven respiration in permeabilized cells in a dose dependent fashion
